Test results reported in US11566260B2, “Potentiating agents for protecting plants from fungal infections” (UNIVERSITE D'ANGERS, priority 2012, dated 2023).

Columns and labels:
Alternaria brassicicola [1] = experiment: Test A: growth of Alternaria brassicicola conidia followed by nephelometry, to find the non-fungicidal amount; assay type: cell-based
Protocol: (§1) Suspensions of fungal conidia (starting material being for example 10^5 conidia/mL) are cultured in liquid medium, such as, for example, 300 μL of PBD medium, on microplate wells at 25° C. with shaking at 175 rpm for 5 minutes every 10 minutes. Increasing concentrations of the tested product are added on wells, and fungal growth is measured, during at least 5 hours, preferably at least 10, 20, 30 hours. Methods for measuring fungal growth are well known from the skilled artisan. Examples of such methods include, but are not limited to, photometry, such as, for example, spectrophotometric methods; or nephelometry, such as, for example, laser nephelometry as described in Joubert et al (Biotechniques, 2010, 48:399-404). Growth inhibition is measured by comparing the Area Under Curves (AUC) of treated samples and of untreated controls. Test A is carried out in Example 1.
Alternaria brassicicola strains were cultivated at 24° C. on potato dextrose (PD) medium (Cat. No. 213200; Becton Dickinson, USA).
For inoculum preparation, conidia were collected from 8-days-old solid cultures by adding PD broth followed by gentle scraping of the agar plates. They were counted in a Thoma's chamber and the conidial suspensions were diluted to the concentration of 10^5 conidia/mL.
Growth was automatically recorded for at least 30 hours at 25° C. using a nephelometric reader (NEPHELOstar Galaxy, BMG Labtech, Germany) equipped with a 635-nm laser as radiation source. During incubation, the 96-well plates were subjected to shaking at 175 rpm for 5 minutes every 10 minutes. Measurements were done every hour with a gain value of 90 and a percentage of the maximum value of 20%. Each well was measured for 0.1 second with a laser beam of 2.5 mm.
Chelerythrin (25 μM or 50 μM, test wells) or 10 μL of DMSO (chelerythrin solvent, control wells) were added on wells, and growth curves were drawn (FIG. 1).
Camalexin (10, 20, 40 or 60 μM, test wells) or 10 μL of DMSO (chelerythrin solvent, control wells) were added on wells, and growth curves were drawn (FIG. 2).

Alternaria brassicicola [2] = experiment: Test B: potentiating effect with a plant defense molecule on growth of Alternaria brassicicola; assay type: cell-based
Protocol: as §1, with “Test B: • 1) Determining a non-fungicidal amount of said agent, preferably according to Test A; • 2) Determining a non-fungicidal amount of a plant defense molecule, preferably according to Test A; • 3) Measuring growth of fungal conidia in a medium comprising a combination of a non-fungicidal amount of the agent, as determined in step 1, and a non-fungicidal amount of the plant defense molecule, as determined in step 2. In one embodiment, the growth is measured as follows: Suspensions” for “Suspensions”, “material:” for “material being for example”, “Non-fungicidal” for “Increasing”, “agent and of the tested plant defense molecule” for “product”, “measured” for “measured,”, “controls.” for “controls. Test A is carried out in Example 1.”
The potentiating effect of chelerythrin is measured in a suspension of conidia treated with a plant defense molecule, camalexin, which is present at a non-fungicidal amount as determined hereinabove. Said non-fungicidal amount is consistent with the amount of camalexin produced by an infected plant organ.
Alternaria brassicicola growth was measured as described hereinabove.
A non-fungicidal amount of chelerythrin (as determined in Example 1a) and/or a non-fungicidal amount of camalexin (as determined in Example 1b) or 10 μL of DMSO are added per well, and growth curves were drawn (FIG. 3).
In the Table 5 below are shown compounds (column 1) having a potentiating effect of a plant defense molecule (column 2) for the inhibition of a pathogenic fungus (column 3). The type of the potentiating agent in this particular situation is given in column 4 (homologous or heterologous). Triads were identified according to Test B.

[3] = tested on: BY4743 strain transformed with the empty pYES2-CT vector; experiment: Test C: growth of S. cerevisiae control strain (empty pYES2-CT vector); assay type: cell-based, Saccharomyces cerevisiae; conditions: for Area under the curve: OD 600 nm
Protocol: (§2) Test C is based on the essential role of Pkc1 in fungal cells: if its essential function is inhibited, the growth of the fungal cells will be affected. Therefore, in Test C, two different strains of S. cerevisiae are cultured in the presence of the tested compound: the first one is a wild-type strain, whereas the second overexpresses the fungal Pkc1 gene. If the tested compound is an inhibitor of the fungal Pkc1 protein, the growth of the wild-type strain will be inhibited, whereas the induction of the overexpression of the heterologous fungal Pkc1 gene will restore, at least partially, the growth rate. Test C is carried out in Example 3.
(§3) Growth of this strain was monitored in an inducing medium (GS uracil-free medium supplemented with galactose) in presence of increasing concentrations of chelerythrin (0, 25, 50 or 75 μM), and was compared with the growth of a control strain (BY4743 strain transformed with the empty pYES2-CT vector). Growth was measured by spectrometry (Optic density: 600 nm). Inhibition of growth was assessed by comparison of the area under the curves.

[4] = tested on: S. cerevisiae strain overexpressing Alternaria brassicicola Pkc1; experiment: Test C: growth of S. cerevisiae strain overexpressing Alternaria brassicicola Pkc1 (pYES-PKC); assay type: cell-based, Saccharomyces cerevisiae; conditions: pYES2-PKC; for Area under the curve: inducing medium, OD 600 nm
Protocol: as §2
Construction of a S. cerevisiae strain overexpressing Alternaria brassicicola Pkc1 The cDNA encoding the Pkc1 gene of Alternaria brassicicola (http://genome.jgi-psf.org/Altbr1/Altbr1.home.html; sequence ref: AB07449.1) was amplified by PCR and cloned into a pYES2-CT vector (Invitrogen, Paisley, UK). The resulting vector (pYES-PKC) was inserted in a BY4743 strain of Saccharomyces cerevisiae.
as §3

COc1ccc2c(c[n+](C)c3c4cc5c(cc4ccc23)OCO5)c1OC [Chelerythrin]
Alternaria brassicicola growth inhibition (Alternaria brassicicola [1]; 25 μM chelerythrin, nephelometry, at least 30 hours, 25° C., vs DMSO control): does not inhibit | non-fungicidal amount (Alternaria brassicicola [1]; Alternaria brassicicola, in vitro): 25 µM | inhibition of Alternaria brassicicola growth by the combination (Alternaria brassicicola [2]; 25 μM chelerythrin combined with 10 μM camalexin, both non-fungicidal amounts): drastic inhibition | Type of potentiating agent (compound having a potentiating effect of the plant defense molecule) (Alternaria brassicicola [2]; plant defense molecule Brassinin, Alternaria brassicicola): Homologous | Type of potentiating agent (compound having a potentiating effect of the plant defense molecule) (Alternaria brassicicola [2]; plant defense molecule Camalexin, Alternaria brassicicola): Homologous | potentiating amount (Alternaria brassicicola [2]; with non-fungicidal amount of camalexin, Alternaria brassicicola): 25 µM | Area under the curve ([3]; 25 μM chelerythrin): 8.6 | Area under the curve ([3]; 50 μM chelerythrin): 3.2 | Area under the curve ([3]; 75 μM chelerythrin): 2.5 | inhibition at 25 µM ([3]; Saccharomyces cerevisiae, 25 μM chelerythrin): 43% | inhibition at 50 µM ([3]; Saccharomyces cerevisiae, 50 μM chelerythrin): 79% | inhibition at 75 µM ([3]; Saccharomyces cerevisiae, 75 μM chelerythrin): 84% | inhibition at 25 µM ([4]; 25 μM chelerythrin): 15% | Area under the curve ([4]; 25 μM chelerythrin): 10.7 | inhibition at 50 µM ([4]; 50 μM chelerythrin): 25% | Area under the curve ([4]; 50 μM chelerythrin): 9.4 | inhibition at 75 µM ([4]; 75 μM chelerythrin): 30% | Area under the curve ([4]; 75 μM chelerythrin): 8.8
